# Read-outs that look alike come from different tables or passages of the source.
# How the values were obtained:
# ABCA1 protein = experiment: Detection of upregulation of ABCA1 protein in cells (ApoA-I binding, high content imaging); assay type: cell-based; details: THP-1 macrophage cells; for EC50: 24 hrs compound incubation, read-out: EC50 [μM] ABCA1 protein increasing efficacy; for % increase of ABCA1 at 3 μM: compound at 3 μM, 24 hrs
# Procedure: The ability of compounds of the invention to increase the level of ABCA1 protein is determined in replicate cultures of THP-1 macrophage cells in 96-well microplates. Cells are plated at an initial density of 100,000 cells/well in 100 μl medium and differentiated to adherent macrophages with the addition of PMA (100 nM) for 68 hrs in 10% fetal bovine serum, 3 μl/L of b-mercaptoethanol, RPMI-1640 medium. Then, cells are incubated with RPMI-1640 medium containing 1% FCS, 25 μg/ml acetylated LDL, for 24 hours at 37° C. Following incubation with acetylated LDL, cells are washed twice with 50 μl PBS and incubated with 100 μl of RPMI-1640 medium containing the compound of interest solubilized in DMSO for an additional 24 hrs. The final DMSO concentration in presence of cells is maintained at 0.5%. ApoA-I binding assay using High Content Image Analysis is initiated by replacing with fresh medium, RPMI without Phenol Red, 0.2% BSA containing AlexaFluor®647 labeled ApoA-I for 2 h/37° C./5% CO2. Then, cells are fixed with 4% Formaldehyde in PBS (15 min, RT). Following Nuclei are stained with Hoechst solution (3 μM PBS) and Cytoplasm with Cell Mask Blue (2 μg/ml PBS), 15 min, RT. Finally the stained cells are fixed with a second round of formaldehyde treatment. Fixed stained cells are washed and kept in PBS at 4° C. and can be read immediately until one month after preparation.
# The Alexa Fluor 647-labeled Apolipoprotein A-I (20 nM) was prepared as follows: Human recombinant Apolipoprotein A-I (ApoA-I) was exchanged to a buffer of 0.02 M NaHCO3 at pH 8.2 on an NAP desalting column (GE Healthcare) and brought to a concentration to 40 μM (1.13 mg/ml) by adjustment with the same buffer. The ApoA-I was fluorescently labeled by incubation with Alexa Fluor carboxylic acid succimidyl ester (Alexa Fluor 647, Invitrogen A-20006) at a 2:1 molar ratio (Alexa to ApoA-I) for 1 h under shaking at RT. The remaining unconjugated label was removed by buffer exchange to 0.02M NaHCO3 at pH 8.2.
# Imaging and data collection were performed on an OPERA confocal microplate imaging reader using a 20× water immersion objective and UV360 or 405 laser to identify the cell nuclei and a 635 laser to identify the fluorescent ApoA-I. Eight fields of view are captured per well. Image capture and analysis was performed with the Acapella software. Background fluorescence detected in control wells without ApoA-I was subtracted.
# Using XLfit3 program (ID Business Solutions Ltd. UK), the model 205 for Dose Response One Site is used to calculate the EC50 values. […] More particularly, the compounds of the present invention have EC50 values in a range of 0.1 μM to 3 μm.
# human CB1 receptor = target: T1, human CB1 receptor (Homo sapiens, UniProt P21554); experiment: CB1 receptor affinity ([3H]-CP-55,940 displacement, HEK cell membranes); assay type: binding; details: read-out: CB1 receptor affinity [% inhibition @ 10 μM]
# T1 construct: expressed in transfected cells; host or cells: human embryonic kidney (HEK) cells, Semliki Forest Virus system, membrane preparations
# Procedure: (§1) The affinity of the compounds of the invention for cannabinoid receptors was determined using membrane preparations of human embryonic kidney (HEK) cells in which the human CB1 receptor is transiently transfected using a Semliki Forest Virus system in conjunction with [3H]-CP-55,940 as radioligand. After incubation of freshly prepared cell membrane preparation with the [^3H]-ligand, with or without addition of compounds of the invention, separation of bound and free ligand was performed by filtration over glass fiber filters. Radioactivity on the filter was measured by scintillation counting.
# (§2) The ability of the compounds to displace the radioligand [^3H]-CP-55,940 was measured at a concentration of 10 μM and values provided as [% inhibition @ 10 μM] both for the CB1 and CB2 receptor assay, The lower % inhibition is, the lower the likelihood of side effects based on CB1 or CB2 receptor inhibition is.
# human CB2 receptor = target: T2, human CB2 receptor (Homo sapiens, UniProt P34972); experiment: CB2 receptor affinity ([3H]-CP-55,940 displacement, HEK cell membranes); assay type: binding; details: displacement of [3H]-CP-55,940 at 10 μM
# T2 construct: expressed in transfected cells; host or cells: human embryonic kidney (HEK) cells, Semliki Forest Virus system, membrane preparations
# Procedure: as §1, with “cannabinoid CB2” for “cannabinoid”, “CB2” for “CB1”, “[^3H]-CP-55,940” for “[3H]-CP-55,940”
# as §2
# [1] = displacement of [3H]-CP-55,940 at 10 μM
# T1 sequence (P21554 whole entry): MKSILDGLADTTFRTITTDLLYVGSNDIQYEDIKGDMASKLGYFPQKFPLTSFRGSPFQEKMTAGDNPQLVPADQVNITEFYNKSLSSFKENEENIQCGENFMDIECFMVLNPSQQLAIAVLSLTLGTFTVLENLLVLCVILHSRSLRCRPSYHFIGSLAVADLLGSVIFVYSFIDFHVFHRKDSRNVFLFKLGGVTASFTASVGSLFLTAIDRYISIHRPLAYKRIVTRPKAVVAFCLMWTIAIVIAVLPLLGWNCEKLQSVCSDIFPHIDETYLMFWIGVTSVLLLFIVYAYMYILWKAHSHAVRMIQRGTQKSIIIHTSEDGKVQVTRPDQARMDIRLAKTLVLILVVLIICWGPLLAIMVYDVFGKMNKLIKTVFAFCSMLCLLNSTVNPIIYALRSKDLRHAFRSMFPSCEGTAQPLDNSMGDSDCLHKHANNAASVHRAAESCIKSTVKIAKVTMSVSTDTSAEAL
# T2 sequence (P34972 whole entry): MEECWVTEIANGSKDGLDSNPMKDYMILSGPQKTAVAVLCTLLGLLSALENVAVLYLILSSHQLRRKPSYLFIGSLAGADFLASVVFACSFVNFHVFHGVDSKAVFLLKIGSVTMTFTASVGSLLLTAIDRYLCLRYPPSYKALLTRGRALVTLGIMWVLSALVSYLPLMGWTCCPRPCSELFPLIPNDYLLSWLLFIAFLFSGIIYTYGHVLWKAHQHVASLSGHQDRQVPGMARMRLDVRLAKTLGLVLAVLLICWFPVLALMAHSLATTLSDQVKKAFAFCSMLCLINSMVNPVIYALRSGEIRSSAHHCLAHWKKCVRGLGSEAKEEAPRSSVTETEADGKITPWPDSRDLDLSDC
SMILES,EC50 (ABCA1 protein) [µM],inhibition at 10 µM (human CB1 receptor; [1]) [%],inhibition at 10 µM (human CB2 receptor) [%],% increase of ABCA1 at 3 μM (ABCA1 protein) [%@ 3 μM],inhibition at 10 µM (human CB1 receptor) [%]
"CN(NC(=O)c1cnc(OCC2CC2)c(C2CC2)c1)c1ccc(F)cc1 [Example 41, 5-cyclopropyl-6-cyclopropylmethoxy-nicotinic acid N′-(4-fluoro-phenyl)-N′-methyl-hydrazide]",1.1,29,38,,
O=C(NNc1ccc(F)cc1)c1cnc(OCC2CC2)c(C2CC2)c1 [Example 42],3.2,11,9,,
"CN(NC(=O)c1cnc(OCC2CC2)c(C2CC2)c1)c1ccccc1 [Example 43, 5-cyclopropyl-6-cyclopropylmethoxy-nicotinic acid N′-methyl-N′-phenyl-hydrazide]",1.04,28,39,,
"C[C@@H]1CN(NC(=O)c2cnc(OCC(F)(F)F)c(C3CC3)c2)C[C@H](C)O1 [Example 44, 5-cyclopropyl-N-((2R,6S)-2,6-dimethyl-morpholin-4-yl)-6-(2,2,2-trifluoro-ethoxy)-nicotinamide]",,14,5,>45,
"C[C@@H]1CN(NC(=O)c2cnc(OCC3CC3)c(C3CC3)c2)C[C@H](C)O1 [Example 45, 5-cyclopropyl-6-cyclopropylmethoxy-N-((2R,6S)-2,6-dimethyl-morpholin-4-yl)-nicotinamide]",9.4,19,17,,
"O=C(NNCc1ccncc1)c1cnc(OCC(F)(F)F)c(C2CC2)c1 [Example 46, 5-cyclopropyl-6-(2,2,2-trifluoro-ethoxy)-nicotinic acid N′-pyridin-4-ylmethyl-hydrazide]",,11,11,>45,
"CN(NC(=O)c1cnc(OC2CCC2)c(C2CC2)c1)c1ccc(F)cc1 [Example 47, 6-cyclobutoxy-5-cyclopropyl-nicotinic acid N′-(4-fluoro-phenyl)-N′-methyl-hydrazide]",,25,7,>45,
"O=C(NNc1ccc(F)cc1)c1cnc(OC2CCC2)c(-c2ccco2)c1 [Example 48, 6-cyclobutoxy-5-furan-2-yl-nicotinic acid N′-(4-fluoro-phenyl)-hydrazide]",0.8,43,-2,,
"CN(NC(=O)c1cnc(OCC(F)(F)F)c(C2CC2)c1)c1ccncc1 [Example 49, 5-cyclopropyl-6-(2,2,2-trifluoro-ethoxy)-nicotinic acid N′-methyl-N′-pyridin-4-yl-hydrazide]",,13,3,>45,
"O=C(NN1CCC(O)CC1)c1cnc(OC2CCC2)c(-c2ccco2)c1 [Example 50, 6-cyclobutoxy-5-furan-2-yl-N-(4-hydroxy-piperidin-1-yl)-nicotinamide]",0.16,15,6,,
"CN(NC(=O)c1cnc(OC2CCC2)c(-c2ccco2)c1)c1ccc(Cl)nn1 [Example 51, 6-cyclobutoxy-5-furan-2-yl-nicotinic acid N′-(6-chloro-pyridazin-3-yl)-N′-methyl-hydrazide]",0.47,,-4,,30
"CN(NC(=O)c1cnc(OC2CCC2)c(-c2ccco2)c1)c1ccncc1 [Example 52, 6-cyclobutoxy-5-furan-2-yl-nicotinic acid N′-methyl-N′-pyridin-4-yl-hydrazide]",5.8,31,19,,
"CN(NC(=O)c1cnc(OCC2CC2)c(C2CC2)c1)c1ccc(C#N)cc1 [Example 53, 5-cyclopropyl-6-cyclopropylmethoxy-nicotinic acid N′-(4-cyano-phenyl)-N′-methyl-hydrazide]",,47,48,>45,
"CN(NC(=O)c1cnc(OCC(F)(F)F)c(C2CC2)c1)c1ccc(C#N)cc1 [Example 54, 5-cyclopropyl-6-(2,2,2-trifluoro-ethoxy)-nicotinic acid N′-(4-cyano-phenyl)-N′-methyl-hydrazide]",,36,17,>45,
"CN(NC(=O)c1cnc(OC2CCC2)c(C2CC2)c1)c1ccc(C#N)cc1 [Example 55, 6-cyclobutoxy-5-cyclopropyl-nicotinic acid N′-(4-cyano-phenyl)-N′-methyl-hydrazide]",,27,18,>45,
"CN(NC(=O)c1cnc(OCC(F)(F)F)c(-c2cccc(F)c2)c1)c1ccccc1 [Example 56, 5-(3-fluoro-phenyl)-6-(2,2,2-trifluoro-ethoxy)-nicotinic acid N′-methyl-N′-phenyl-hydrazide]",,28,16,>45,

# Source: patent publication US8648099B2 (Hoffmann-La Roche Inc., priority 2011, dated 2014)
